Tests used:
Experiment in all cases: Kinase profiling in a biochemical assay panel (mobility shift assays and ELISA), %-inhibition at 1 μM; selectivity entropy
[1] = molecular target: panel of more than 300 wild-type and mutant kinases (313 kinase panel) (Homo sapiens, UniProt Q13557)
[2] = molecular target: T1, panel of more than 300 wild-type and mutant kinases (313 kinase panel) (Homo sapiens, UniProt P54762)
T1 sequence (P54762 18-984): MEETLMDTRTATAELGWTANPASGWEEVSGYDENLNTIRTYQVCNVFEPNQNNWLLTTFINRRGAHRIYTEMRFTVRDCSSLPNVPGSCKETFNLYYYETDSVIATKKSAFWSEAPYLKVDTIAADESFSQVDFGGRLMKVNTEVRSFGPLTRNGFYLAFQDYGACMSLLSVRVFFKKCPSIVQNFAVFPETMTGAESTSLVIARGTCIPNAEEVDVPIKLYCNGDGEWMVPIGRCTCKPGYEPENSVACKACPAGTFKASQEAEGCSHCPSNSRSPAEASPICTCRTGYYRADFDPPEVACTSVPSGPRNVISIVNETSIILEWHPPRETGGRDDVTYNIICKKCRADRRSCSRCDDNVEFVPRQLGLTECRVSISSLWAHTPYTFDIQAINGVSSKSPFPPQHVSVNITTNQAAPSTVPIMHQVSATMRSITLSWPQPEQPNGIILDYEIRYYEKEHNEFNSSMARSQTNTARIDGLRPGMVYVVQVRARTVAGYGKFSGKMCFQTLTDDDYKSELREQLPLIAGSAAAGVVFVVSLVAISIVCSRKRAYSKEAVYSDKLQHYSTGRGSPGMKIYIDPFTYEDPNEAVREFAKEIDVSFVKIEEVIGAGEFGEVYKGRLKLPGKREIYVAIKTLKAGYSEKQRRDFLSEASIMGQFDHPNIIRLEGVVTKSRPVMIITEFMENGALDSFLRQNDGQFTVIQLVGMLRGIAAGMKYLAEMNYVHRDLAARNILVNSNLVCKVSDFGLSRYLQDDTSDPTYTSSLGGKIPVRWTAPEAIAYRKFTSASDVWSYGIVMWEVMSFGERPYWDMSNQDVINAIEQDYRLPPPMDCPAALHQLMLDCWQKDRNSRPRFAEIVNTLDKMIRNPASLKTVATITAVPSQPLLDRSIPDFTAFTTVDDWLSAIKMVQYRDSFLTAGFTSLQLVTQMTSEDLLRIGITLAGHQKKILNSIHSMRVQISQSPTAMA

[3] = molecular target: T2, panel of more than 300 wild-type and mutant kinases (313 kinase panel) (Homo sapiens, UniProt Q8TD19)
T2 sequence (Q8TD19 1-979): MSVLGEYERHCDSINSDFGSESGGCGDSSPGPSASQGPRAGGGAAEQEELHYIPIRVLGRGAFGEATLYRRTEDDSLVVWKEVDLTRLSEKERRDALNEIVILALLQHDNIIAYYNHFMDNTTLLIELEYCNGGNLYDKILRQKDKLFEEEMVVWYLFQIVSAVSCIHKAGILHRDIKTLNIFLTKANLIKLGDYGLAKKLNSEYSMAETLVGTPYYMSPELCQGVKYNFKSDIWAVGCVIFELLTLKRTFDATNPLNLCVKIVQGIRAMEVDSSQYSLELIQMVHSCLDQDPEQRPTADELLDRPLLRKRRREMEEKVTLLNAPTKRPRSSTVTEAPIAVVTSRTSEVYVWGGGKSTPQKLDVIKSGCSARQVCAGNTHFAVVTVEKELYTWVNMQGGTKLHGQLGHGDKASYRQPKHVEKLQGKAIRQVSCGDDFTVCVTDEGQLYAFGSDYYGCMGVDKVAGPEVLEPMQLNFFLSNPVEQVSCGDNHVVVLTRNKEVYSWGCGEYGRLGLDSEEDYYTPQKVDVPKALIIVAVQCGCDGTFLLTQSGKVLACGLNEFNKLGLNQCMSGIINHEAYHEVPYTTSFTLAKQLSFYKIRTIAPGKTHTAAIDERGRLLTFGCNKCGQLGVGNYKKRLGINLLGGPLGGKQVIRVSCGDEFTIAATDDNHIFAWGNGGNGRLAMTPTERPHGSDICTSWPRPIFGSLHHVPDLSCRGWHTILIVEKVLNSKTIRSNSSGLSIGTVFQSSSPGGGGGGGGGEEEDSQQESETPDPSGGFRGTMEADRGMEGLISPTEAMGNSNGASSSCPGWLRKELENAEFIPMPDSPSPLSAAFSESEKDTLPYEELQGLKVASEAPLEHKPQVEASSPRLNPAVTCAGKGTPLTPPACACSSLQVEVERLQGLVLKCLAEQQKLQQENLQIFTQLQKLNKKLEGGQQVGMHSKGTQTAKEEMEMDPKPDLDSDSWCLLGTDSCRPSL

[4] = molecular target: panel of more than 300 wild-type and mutant kinases (313 kinase panel) (Homo sapiens, UniProt Q13131)
[5] = kinase AMPKα1/β1/γ1, 1 μM compound

panel of more than 300 wild-type and mutant kinases (313 kinase panel) (Homo sapiens, UniProt Q13131), sequence (Q13131 whole entry, change not shown): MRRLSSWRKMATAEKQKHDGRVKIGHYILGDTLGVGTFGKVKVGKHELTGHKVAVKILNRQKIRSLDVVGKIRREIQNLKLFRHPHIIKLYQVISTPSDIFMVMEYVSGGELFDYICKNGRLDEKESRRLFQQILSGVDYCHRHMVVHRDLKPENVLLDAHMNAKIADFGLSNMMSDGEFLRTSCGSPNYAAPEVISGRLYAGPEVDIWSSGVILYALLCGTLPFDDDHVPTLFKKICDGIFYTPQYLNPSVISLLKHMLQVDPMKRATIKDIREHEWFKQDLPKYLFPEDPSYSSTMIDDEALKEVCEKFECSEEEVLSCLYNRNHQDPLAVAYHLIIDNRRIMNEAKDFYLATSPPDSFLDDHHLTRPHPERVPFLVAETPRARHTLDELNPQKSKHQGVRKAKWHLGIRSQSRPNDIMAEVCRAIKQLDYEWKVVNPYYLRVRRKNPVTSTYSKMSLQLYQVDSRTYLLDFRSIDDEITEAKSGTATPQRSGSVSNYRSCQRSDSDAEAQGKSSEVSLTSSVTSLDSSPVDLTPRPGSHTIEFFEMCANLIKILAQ
panel of more than 300 wild-type and mutant kinases (313 kinase panel) (Homo sapiens, UniProt Q13557), sequence (Q13557 whole entry, change not shown): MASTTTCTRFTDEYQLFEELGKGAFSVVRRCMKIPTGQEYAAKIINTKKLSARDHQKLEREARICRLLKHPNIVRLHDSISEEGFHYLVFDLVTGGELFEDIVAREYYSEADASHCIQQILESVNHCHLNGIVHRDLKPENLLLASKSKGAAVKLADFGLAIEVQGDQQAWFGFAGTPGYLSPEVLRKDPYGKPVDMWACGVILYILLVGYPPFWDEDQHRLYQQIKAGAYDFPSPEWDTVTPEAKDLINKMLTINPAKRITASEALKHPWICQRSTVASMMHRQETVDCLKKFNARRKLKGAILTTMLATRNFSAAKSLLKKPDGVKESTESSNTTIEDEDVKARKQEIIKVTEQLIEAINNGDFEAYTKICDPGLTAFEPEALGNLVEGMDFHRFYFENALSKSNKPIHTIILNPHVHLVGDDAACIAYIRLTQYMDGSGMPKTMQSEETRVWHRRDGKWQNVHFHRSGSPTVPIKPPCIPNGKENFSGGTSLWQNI

SMILES	%-inhibition, CaMK2δ ([1]; kinase CaMK2δ, 1 μM compound)	%-inhibition of EPHB1 ([2]; kinase EPHB1, compound at 1 μM)	%-inhibition of NEK9 ([3]; kinase NEK9, 1 μM)	%-inhibition, AMPKα1/β1/γ1 [4, 5]	%-inhibition of NEK9 ([3]; 1 µM)	%-inhibition of EPHB1 ([2]; 1 µM)	%-inhibition, CaMK2δ ([1]; 1 µM)	%-inhibition, AMPKα1/β1/γ1 ([4]; 1 µM)
CC(C)(C)c1nc(-c2cccc(NS(=O)(=O)c3c(F)cccc3F)c2F)c(-c2ccnc(N)n2)s1 [dabrafenib]	-0.23%	12%	101%					
CCCS(=O)(=O)Nc1ccc(F)c(C(=O)c2c[nH]c3ncc(-c4ccc(Cl)cc4)cc23)c1F [vemurafenib]	-0.235%	-1.63%	-2.2%	-1.59%				
Cc1nc(Nc2ncc(C(=O)Nc3c(C)cccc3Cl)s2)cc(N2CCN(CCO)CC2)n1 [dasatinib]	-7.61%							
C[C@@H](Oc1cc(-c2cnn(C3CCNCC3)c2)cnc1N)c1c(Cl)ccc(F)c1Cl [crizotinib]	4%	93%	57%	16%				
Cc1ccc(C(=O)Nc2ccc(CN3CCN(C)CC3)c(C(F)(F)F)c2)cc1C#Cc1cnc2cccnn12 [ponatinib]			17%	46%				
O=S(=O)(c1cccc2cnccc12)N1CCCNCC1 [fasudil]	3.46%	-7%	-3%	-14%				
COc1cc(Nc2c(C#N)cnc3cc(OCCCN4CCN(C)CC4)c(OC)cc23)c(Cl)cc1Cl [bosutinib]				9%	-4.25%			
CO[C@H]1C[C@@H]2CC[C@@H](C)[C@@](O)(O2)C(=O)C(=O)N2CCCC[C@H]2C(=O)O[C@H]([C@H](C)C[C@@H]2CC[C@@H](OCCO)[C@H](OC)C2)CC(=O)[C@H](C)/C=C(\C)[C@@H](O)[C@@H](OC)C(=O)[C@H](C)C[C@H](C)/C=C/C=C/C=C/1C [everolimus]	-2.12%	-0.233%	-11%	-6%				
Cc1ccc(Nc2nccc(N(C)c3ccc4c(C)n(C)nc4c3)n2)cc1S(N)(=O)=O [pazopanib]	1.54%	27%	3.59%	-0.748%				
CNC(=O)c1cc(Oc2ccc(NC(=O)Nc3ccc(Cl)c(C(F)(F)F)c3)c(F)c2)ccn1 [regorafenib]	1.53%	76%	2.52%	-0.723%				
CC(=O)Nc1cccc(-n2c(=O)n(C3CC3)c(=O)c3c(Nc4ccc(I)cc4F)n(C)c(=O)c(C)c32)c1 [trametinib]	-2.19%	-8%	-3%	-12%				
CO[C@H]1C[C@@H]2CC[C@@H](C)[C@@](O)(O2)C(=O)C(=O)N2CCCC[C@H]2C(=O)O[C@H]([C@H](C)C[C@@H]2CC[C@@H](OC(=O)C(C)(CO)CO)[C@H](OC)C2)CC(=O)[C@H](C)/C=C(\C)[C@@H](O)[C@@H](OC)C(=O)[C@H](C)C[C@H](C)/C=C/C=C/C=C/1C [temsirolimus]	-4%	-1.86%	-8%	-4.34%				
CS(=O)(=O)CCNCc1ccc(-c2ccc3ncnc(Nc4ccc(OCc5cccc(F)c5)c(Cl)c4)c3c2)o1 [lapatinib]	-33%			-5%		-0.743%		
COc1cc2c(Nc3ccc(Br)cc3F)ncnc2cc1OCC1CCN(C)CC1 [vandetanib]	10%	96%	-7%	9%				
COc1cc2nccc(Oc3ccc(NC(=O)C4(C(=O)Nc5ccc(F)cc5)CC4)cc3)c2cc1OC [cabozantinib]	0.942%	95%	1.26%	-1%				
N#CC[C@H](C1CCCC1)n1cc(-c2ncnc3[nH]ccc23)cn1 [ruxolitinib]	81%		8%	2.17%		31%		
Cc1cn(-c2cc(NC(=O)c3ccc(C)c(Nc4nccc(-c5cccnc5)n4)c3)cc(C(F)(F)F)c2)cn1 [nilotinib]		72%	-21%				1.2%	-12%
C#Cc1cccc(Nc2ncnc3cc(OCCOC)c(OCCOC)cc23)c1 [erlotinib]					7%	22%	-11%	2%

Source: PMC3961306, “Comparison of the Cancer Gene Targeting and Biochemical Selectivities of All Targeted Kinase Inhibitors Approved for Clinical Use” (PLoS ONE, 2014)
